# Source: patent US20170298100A1, “ANTI-VIRAL PEPTIDES” (Cascadia Life Sciences LLC, priority 2014, published 2017)
# Where two headings read alike, the source gives them in different places.
# Experiments:
# [1] = tested on: influenza H3N2/Wisconsin/67/2005; test: plaque assay of influenza H3N2 replication in MDCK cells; format: cell-based, influenza virus; settings: 10 μM, control drug
# [2] = tested on: herpes simplex virus type 1 strain KOS; test: plaque inhibition assay of HSV1 strain KOS replication in Vero cells; format: cell-based; settings: for inhibition of plaque number: compared to media-only treated controls
# [3] = tested on: MDCK canine kidney cells; settings: for effect on monolayer: compared to cell control wells
# [4] = tested on: Vero African green monkey kidney cells
compound,measurement,setting,value
CCOC(=O)C1=C[C@@H](OC(CC)CC)[C@H](NC(C)=O)[C@@H](N)C1 [Oseltamivir],inhibition of H3N2 plaques,[1],completely inhibitory
"Nc1nc2c(ncn2COCCO)c(=O)[nH]1 [acyclovir, reference compound]",plaque size relative to plaques with 56 μM CLS1N (approx. 0.7 mm),[2]; 5 μM acyclovir control,approximately the same size
Ac-ADVDVSAVQAKLGALELNQRDAAAETELRV-NH2 [CLS2A],cytotoxicity,[3]; 59.4 μM (second concentration),no cytotoxicity
same,effect on monolayer,[3]; 188 μM (highest concentration),moderate thinning and more intense staining of the monolayer
Ac-GDTVGLIDEQNEASKTNGLGAAEAF-NH2 [CLS2G],cytotoxicity,[3]; 74.0 μM (second concentration),no cytotoxicity
same,effect on monolayer,[3]; 235 μM (highest concentration),moderate thinning and more intense staining of the monolayer
Ac-RQYSVTDALEDVSTSPQSTEEVVQSFLISQ-NH2 [CLS1S],density of the monolayer,[4]; 188 ug/ml dilution,did not affect the density of the monolayer
same,effect on monolayer,"[4]; highest concentration, compared to control untreated cells",moderate thinning
RQYSVTDALEDVNTSPQSTEEVVQSFLISQ (Artificial anti-viral peptides) [CLS1N],plaque size,[2]; 5.6 μM (dilution 4),wild type size
same,inhibition of plaque number,[2]; 5.6 μM (dilution 4),not significant inhibition of plaque number
same,plaque size,[2]; 17.6 μM (dilution 3),wild type size
same,inhibition of plaque number,[2]; 17.6 μM (dilution 3),not significant inhibition of plaque number
same,plaque size (diameter),"[2]; 56 μM, untreated plaques approx. 1.5 mm",approx. 0.7 mm
same,plaque number,[2]; 177 μM,reduced in number
same,inhibition of virus growth in cells,"[2]; plaque inhibition assay, Vero cells",effectively inhibited virus growth
same,monolayer appearance,[4]; 5.6 μM (dilution 4),normal microscopically
same,monolayer appearance,[4]; 17.6 μM (dilution 3),normal microscopically
same,cytotoxicity grade (density of the monolayer),[4]; 56 μM,no cytotoxicity
same,effect on monolayer,"[4]; 177 μM, compared to cell control wells",moderate thinning and moderately less intense staining of the monolayer
